Measurements reported in patent publication US8053581B2, “Trisubstituted thiazole compounds, preparations methods, pharmaceutical compositions and medicals uses thereof” (Institute of Pharmacology and Toxicology Academy of …, priority 2006, dated 2011).

First: COc1ccc(-c2nc(N)sc2Cc2ccccc2)cc1 [Example 1, 5-benzyl-4-(4-methoxy-phenyl)-thiazol-2-ylamine]
Second: Nc1nc(-c2ccc(O)cc2)c(Cc2ccccc2)s1 [Example 2, 5-benzyl-4-(4-hydroxy-phenyl)-thiazol-2-ylamine]
The melting point of the first is higher: 177 to 178 °C for the first, 170 to 172 °C for the second.

First: COc1ccc(-c2nc(NC(=O)c3ccccc3)sc2Cc2ccccc2)cc1 [Example 3, N-[5-benzyl-4-(4-methoxy-phenyl)-thiazol-2-yl]-benzamide]
Second: COc1ccc(-c2nc(NC(=O)c3ccc(F)cc3)sc2Cc2ccccc2)cc1 [Example 4, N-[5-benzyl-4-(4-methoxy-phenyl)-thiazol-2-yl]-4-fluoro-benzamide]
The melting point of the first is lower: 146 to 147 °C for the first, 164 to 165 °C for the second.

First: COc1ccc(-c2nc(NC(=O)c3ccc(Cl)cc3)sc2Cc2ccccc2)cc1 [Example 5, N-[5-benzyl-4-(4-methoxy-phenyl)-thiazol-2-yl]-4-chloro-benzamide]
Second: COc1ccc(-c2nc(NC(=O)c3ccc(C#N)cc3)sc2Cc2ccccc2)cc1 [Example 13, N-[5-benzyl-4-(4-methoxy-phenyl)-thiazol-2-yl]-4-cyano-benzamide]
The melting point of the first is lower: 182 to 183 °C for the first, 194 to 196 °C for the second.

First: COc1ccc(-c2nc(N)sc2Cc2ccc([N+](=O)[O-])cc2)cc1 [Example 6, 4-(4-methoxy-phenyl)-5-(4-nitro-benzyl)-thiazol-2-ylamine]
Second: Nc1nc(-c2ccc(F)cc2)c(Cc2ccc([N+](=O)[O-])cc2)s1 [Example 9, 4-(4-fluoro-phenyl)-5-(4-nitro-benzyl)-thiazol-2-ylamine]
The melting point of the first is lower: 209 to 210 °C for the first, 217 to 218 °C for the second.

First: O=C(Nc1nc(-c2ccc(O)cc2)c(Cc2ccccc2)s1)c1ccc(F)cc1 [Example 7, N-[5-benzyl-4-(4-hydroxy-phenyl)-thiazol-2-yl]-4-fluoro-benzamide]
Second: O=C(Nc1nc(-c2ccc(O)cc2)c(Cc2ccccc2)s1)c1ccc(O)cc1 [Example 46, N-[5-benzyl-4-(4-hydroxy-phenyl)-thiazol-2-yl]-4-hydroxy-benzamide]
The melting point of the first is lower: 205 to 206 °C for the first, 254 to 255 °C for the second.

First: COc1ccc(-c2nc(NC(=O)c3ccc(F)cc3)sc2Cc2ccc([N+](=O)[O-])cc2)cc1 [Example 10, 4-fluoro-N-[4-(4-methoxy-phenyl)-5-(4-nitro-benzyl)-thiazol-2-yl]-benzamide]
Second: COc1ccc(-c2nc(NC(=O)c3ccc(C#N)cc3)sc2Cc2ccc([N+](=O)[O-])cc2)cc1 [Example 14, 4-cyano-N-[4-(4-methoxy-phenyl)-5-(4-nitro-benzyl)-thiazol-2-yl]-benzamide]
The melting point of the first is lower: 188 to 189 °C for the first, 190 to 192 °C for the second.

Compared with `O=C(Nc1nc(-c2ccc(F)cc2)c(Cc2ccc([N+](=O)[O-])cc2)s1)c1ccc(F)cc1` [Example 11, 4-fluoro-N-[4-(4-fluoro-phenyl)-5-(4-nitro-benzyl)-thiazol-2-yl]-benzamide], `N#Cc1ccc(C(=O)Nc2nc(-c3ccc(F)cc3)c(Cc3ccc([N+](=O)[O-])cc3)s2)cc1` [Example 15, 4-cyano-N-[4-(4-fluoro-phenyl)-5-(4-nitro-benzyl)-thiazol-2-yl]-benzamide] is higher in melting point: 120 to 122 °C for the first, 244 to 245 °C for the second.

First: COc1ccc(-c2nc(NC(=O)c3ccc(OC)c(OC)c3)sc2Cc2ccccc2)cc1 [Example 12, N-[5-benzyl-4-(4-methoxy-phenyl)-thiazol-2-yl]-3,4-dimethoxy-benzamide]
Second: COc1ccc(-c2nc(NC(=O)c3ccc(OC)c(OC)c3)sc2CCc2ccccc2)cc1 [Example 58, 3,4-dimethoxy-N-[4-(4-methoxy-phenyl)-5-phenylethyl-thiazol-2-yl]-benzamide]
The melting point of the first is higher: 179 to 180 °C for the first, 74 to 75 °C for the second.

Compared with `COc1ccc(-c2nc(NC(=O)c3cc(F)cc(F)c3)sc2Cc2ccccc2)cc1` [Example 16, N-[5-benzyl-4-(4-methoxy-phenyl)-thiazol-2-yl]-3,5-difluoro-benzamide], `COc1ccc(-c2nc(NC(=O)c3cc(F)cc(F)c3)sc2Cc2ccc(F)cc2)cc1` [Example 22, 3,5-difluoro-N-[5-(4-fluoro-benzyl)-4-(4-methoxy-phenyl)-thiazol-2-yl]-benzamide] is higher in melting point: 154 to 155 °C for the first, 175 to 176 °C for the second.

First: COc1ccc(-c2nc(NC(=O)c3cc(F)cc(F)c3)sc2Cc2ccc([N+](=O)[O-])cc2)cc1 [Example 17, 3,5-difluoro-N-[4-(4-methoxy-phenyl)-5-(4-nitro-benzyl)-thiazol-2-yl]-benzamide]
Second: O=C(Nc1nc(-c2ccc(F)cc2)c(Cc2ccc([N+](=O)[O-])cc2)s1)c1cc(F)cc(F)c1 [Example 18, 3,5-difluoro-N-[4-(4-fluoro-phenyl)-5-(4-nitro-benzyl)-thiazol-2-yl]-benzamide]
The melting point of the first is lower: 189 to 190 °C for the first, 216 to 218 °C for the second.

First: COc1ccc(C(=O)Nc2nc(-c3ccc(F)cc3)c(Cc3ccc([N+](=O)[O-])cc3)s2)cc1OC [Example 20, N-[4-(4-fluoro-phenyl)-5-(4-nitro-benzyl)-thiazol-2-yl]-3,4-dimethoxy-benzamide]
Second: COc1ccc(-c2nc(NC(=O)c3ccc(OC)c(OC)c3)sc2Cc2ccc([N+](=O)[O-])cc2)cc1 [Example 28, 3,4-dimethoxy-N-[4-(4-methoxy-phenyl)-5-(4-nitro-benzyl)-thiazol-2-yl]-benzamide]
The melting point of the first is higher: 128 to 129 °C for the first, 106 to 108 °C for the second.

Compared with `COc1ccc(-c2nc(NC(=O)c3ccc(F)cc3)sc2Cc2ccc(F)cc2)cc1` [Example 23, 4-fluoro-N-[5-(4-fluoro-benzyl)-4-(4-methoxy-phenyl)-thiazol-2-yl]-benzamide], `COc1ccc(-c2nc(NC(=O)c3ccc(C#N)cc3)sc2Cc2ccc(F)cc2)cc1` [Example 25, 4-cyano-N-[5-(4-fluoro-benzyl)-4-(4-methoxy-phenyl)-thiazol-2-yl]-benzamide] is higher in melting point: 184 to 185 °C for the first, 191 to 192 °C for the second.

First: COc1ccc(-c2nc(N(C(=O)c3ccc(OC)c(OC)c3)C(=O)c3ccc(OC)c(OC)c3)sc2Cc2ccc(F)cc2)cc1 [Example 24]
Second: COc1ccc(-c2nc(NC(=O)c3ccc(OC)c(OC)c3)sc2Cc2ccc(F)cc2)cc1 [Example 30, N-[5-(4-fluoro-benzyl)-4-(4-methoxy-phenyl)-thiazol-2-yl]-3,4-dimethoxy-benzamide]
The melting point of the first is lower: 136 to 137 °C for the first, 140 to 142 °C for the second.

Compared with `Nc1nc(-c2ccccc2)c(Cc2ccc([N+](=O)[O-])cc2)s1` [Example 26, 5-(4-nitro-benzyl)-4-phenyl-thiazol-2-ylamine], `COc1ccc(C(=O)Nc2nc(-c3ccccc3)c(Cc3ccc([N+](=O)[O-])cc3)s2)cc1OC` [Example 29, 3,4-dimethoxy-N-[5-(4-nitro-benzyl)-4-phenyl-thiazol-2-yl]-benzamide] is lower in melting point: 215 to 216 °C for the first, 105 to 106 °C for the second.

First: COc1ccc(C(=O)Nc2nc(-c3ccc(OC)cc3)c(Cc3ccccc3)s2)cc1 [Example 27, N-[5-benzyl-4-(4-methoxy-phenyl)-thiazol-2-yl]-4-methoxy-benzamide]
Second: COc1ccc(-c2nc(NC(=O)c3cccc(OC)c3)sc2Cc2ccccc2)cc1 [Example 42, N-[5-benzyl-4-(4-methoxy-phenyl)-thiazol-2-yl]-3-methoxy-benzamide]
The melting point of the first is lower: 58 to 59 °C for the first, 71 to 72 °C for the second.

First: COc1ccc(-c2nc(NC(=O)c3ccc(OC)cc3OC)sc2Cc2ccccc2)cc1 [Example 35, N-[5-benzyl-4-(4-methoxy-phenyl)-thiazol-2-yl]-2,4-dimethoxy-benzamide]
Second: COc1ccc(-c2nc(NC(=O)c3ccccc3OC)sc2Cc2ccccc2)cc1 [Example 36, N-[5-benzyl-4-(4-methoxy-phenyl)-thiazol-2-yl]-2-methoxy-benzamide]
The melting point of the first is higher: 196 to 197 °C for the first, 147 to 148 °C for the second.

First: COc1ccc(-c2nc(NC(=O)c3cc(OC)c(OC)c(OC)c3)sc2Cc2ccccc2)cc1 [Example 37, N-[5-benzyl-4-(4-methoxy-phenyl)-thiazol-2-yl]-3,4,5-trimethoxy-benzamide]
Second: COc1ccc(-c2nc(NC(=O)c3cc(OC)c(OC)c(OC)c3)sc2CCc2ccccc2)cc1 [Example 59, 3,4,5-trimethoxy-N-[4-(4-methoxy-phenyl)-5-phenylethyl-thiazol-2-yl]-benzamide]
The melting point of the first is higher: 157 to 158 °C for the first, 78 to 79 °C for the second.

First: O=C(Nc1nc(-c2ccc(O)cc2)c(Cc2ccccc2)s1)c1ccccc1O [Example 39, N-[5-benzyl-4-(4-hydroxy-phenyl)-thiazol-2-yl]-2-hydroxy-benzamide]
Second: O=C(Nc1nc(-c2ccc(O)cc2)c(Cc2ccccc2)s1)c1cccc(O)c1 [Example 44, N-[5-benzyl-4-(4-hydroxy-phenyl)-thiazol-2-yl]-3-hydroxy-benzamide]
The melting point of the first is higher: 279 to 280 °C for the first, 233 to 234 °C for the second.

First: COc1ccc(-c2nc(NC(=O)c3cc(OC)cc(OC)c3)sc2Cc2ccccc2)cc1 [Example 43, N-[5-benzyl-4-(4-methoxy-phenyl)-thiazol-2-yl]-3,5-dimethoxy-benzamide]
Second: O=C(Nc1nc(-c2ccc(O)cc2)c(Cc2ccccc2)s1)c1cc(O)cc(O)c1 [Example 45, N-[5-benzyl-4-(4-hydroxy-phenyl)-thiazol-2-yl]-3,5-dihydroxy-benzamide]
The melting point of the first is lower: 152 to 153 °C for the first, 262 to 263 °C for the second.

Compared with `COc1ccc(-c2nc(NC(=O)c3ccc(OC)c(OC)c3)sc2CC2CCCCC2)cc1` [Example 48, N-[5-cyclohexylmethyl-4-(4-methoxy-phenyl)-thiazol-2-yl]-3,4-dimethoxy-benzamide], `COc1ccc(-c2nc(NC(=O)c3cc(OC)c(OC)c(OC)c3)sc2CC2CCCCC2)cc1` [Example 50] is higher in melting point: 171 to 172 °C for the first, 193 to 194 °C for the second.

First: COc1ccc(-c2nc(N)sc2C)cc1 [Example 52, 4-(4-methoxy-phenyl)-5-methyl-thiazol-2-ylamine]
Second: COc1ccc(-c2nc(NC(=O)c3ccc(OC)c(OC)c3)sc2C)cc1 [Example 54, 3,4-dimethoxy-N-[4-(4-methoxy-phenyl)-5-methyl-thiazol-2-yl]-benzamide]
The melting point of the first is lower: 139 to 140 °C for the first, 174 to 175 °C for the second.

`COc1ccc(-c2nc(NC(=O)c3cc(OC)c(OC)c(OC)c3)sc2C)cc1` [Example 53, 3,4,5-trimethoxy-N-[4-(4-methoxy-phenyl)-5-methyl-thiazol-2-yl]-benzamide] showed a melting point of 105 to 106 °C.
